Results as given in patent US7183301B2, “Heterocyclic compounds having antibacterial activity: process for their preparation and pharmaceutical compositions containing them” (Dr. Reddy's Research Foundation, priority 2000, dated 2007).
Values after ≈ are worked out from the molar mass of the structure shown.

How the values were obtained:
[1] = system: Staphylococcus aureus ATCC 33591 (DRCC 019, MRSA); experiment: MIC by broth microdilution, S. aureus DRCC 019 (MRSA); type: cell-based; conditions: Mueller Hinton Broth, overnight 37° C., strain DRCC 019 (ATCC 33591), read-out: Antimicrobial Screening (MIC) Staphylococcus aureus 019 MRSA
Method: (§1) Minimum Inhibiton Concentrations (MICs) were determined by broth microdilution technique as per the guidelines prescribed om the fifth edition of Approved Standards, NCCLS document M7-A5 Vol 20-No 2, 2000 Villinova, Pa.
(§2) Initial stock solution of the test compound was prepared in DMSO. Subsequent two fold dilutions were carried out in sterile Mueller Hinton Broth (Difco) (MHB).
(§3) Frozen cultures stocks were inoculated into 50 ml sterile MHB in 250 ml Erlyn Meyer flasks.
(§4) Composition of MHB is as follows:
(§5) Flasks were incubated for 4 to 5 h at 35° C. on a rotary shaker at 150 rpm. Inoculum was prepared by diluting the culture in sterile MHB to obtain a turbidity of 0.5 McFarland standard. This corresponds to 1–2×10^8 CFU/ml. The stock was further diluted in sterile broth to obtain 1–2×10^6 CFU/ml. 50 μl of the above diluted inoculum was added from 1–10 wells. The plates were incubated overnight at 37° C.

[2] = system: Staphylococcus aureus ATCC 49951 (DRCC 213, Smith S); experiment: MIC by broth microdilution, S. aureus DRCC 213 (Smith S); type: cell-based; conditions: ATCC49951, Mueller Hinton Broth, overnight 37° C., strain DRCC 213 (ATCC 49951), read-out: Antimicrobial Screening (MIC) Staphylococcus aureus 213 Smith S
Method: as §1, §2, §3, §4, §5

[3] = system: Staphylococcus aureus ATCC 29213 (DRCC 035, S); experiment: MIC by broth microdilution, S. aureus DRCC 035 (S); type: cell-based; conditions: ATCC29213, Mueller Hinton Broth, overnight 37° C., strain DRCC 035 (ATCC 29213), read-out: Antimicrobial Screening (MIC) Staphylococcus aureus 035 S
Method: as §1, §2, §3, §4, §5

[4] = system: Enterococcus faecalis ATCC 29212 (DRCC 034, S); experiment: MIC by broth microdilution, Enterococcus DRCC 034 (S); type: cell-based; conditions: ATCC29212, Mueller Hinton Broth, overnight 37° C., strain DRCC 034 (E. faecalis ATCC 29212), read-out: Antimicrobial Screening (MIC) Enterococcus sp 034 S
Method: as §1, §2, §3, §4, §5

[5] = system: Enterococcus faecalis NCTC 12201 (DRCC 153, R); experiment: MIC by broth microdilution, Enterococcus DRCC 153 (R); type: cell-based; conditions: NCTC12201, Mueller Hinton Broth, overnight 37° C., strain DRCC 153 (E. faecalis NCTC 12201), read-out: Antimicrobial Screening (MIC) Enterococcus sp 153 R
Method: as §1, §2, §3, §4, §5

[6] = system: Enterococcus faecium NCTC 12202 (DRCC 154, R); experiment: MIC by broth microdilution, Enterococcus DRCC 154 (R); type: cell-based; conditions: NCTC12202, Mueller Hinton Broth, overnight 37° C., strain DRCC 154 (E. faecium NCTC 12202), read-out: Antimicrobial Screening (MIC) Enterococcus sp 154 R
Method: as §1, §2, §3, §4, §5

[7] = system: Escherichia coli ATCC 25922 (DRCC 018, S); experiment: MIC by broth microdilution, E coli DRCC 018 (S); type: cell-based; conditions: ATCC25922, Mueller Hinton Broth, overnight 37° C., strain DRCC 018 (ATCC 25922), read-out: Antimicrobial Screening (MIC) E coli 18 S
Method: as §1, §2, §3, §4, §5

| MIC [1] [µg/mL] | MIC [2] [µg/mL] | MIC [3] [µg/mL] | MIC [4] [µg/mL] | MIC [5] [µg/mL] | MIC [6] [µg/mL] | MIC [7] [µg/mL] | melting point [°C] | Compound |
| --- | --- | --- | --- | --- | --- | --- | --- | --- |
| 0.5 (≈ 1.21 µM) | 1 (≈ 2.42 µM) | 1 (≈ 2.42 µM) | 1 (≈ 2.42 µM) | 1 (≈ 2.42 µM) | 1 (≈ 2.42 µM) | – | – | COCN1CN(c2ccc(N3C[C@H](CNC(=S)OC)OC3=O)cc2F)CC1=O [Example 127] |
| 0.25 (≈ 0.627 µM) | 0.25 (≈ 0.627 µM) | 0.5 (≈ 1.25 µM) | 0.5 (≈ 1.25 µM) | 0.25 (≈ 0.627 µM) | 0.5 (≈ 1.25 µM) | – | – | COC(=S)NC[C@H]1CN(c2ccc(N3CC(=O)N(CO)C3)c(F)c2)C(=O)O1 [Example 124] |
| 1 (≈ 2.71 µM) | 1 (≈ 2.71 µM) | 2 (≈ 5.41 µM) | 2 (≈ 5.41 µM) | 2 (≈ 5.41 µM) | 2 (≈ 5.41 µM) | > 32 | – | COC(=S)NC[C@H]1CN(c2ccc(N3CCOC3=O)c(F)c2)C(=O)O1 [Example 88] |
| 0.5 (≈ 1.31 µM) | 0.5 (≈ 1.31 µM) | 0.5 (≈ 1.31 µM) | 1 (≈ 2.61 µM) | 1 (≈ 2.61 µM) | 1 (≈ 2.61 µM) | 32 (≈ 83.7 µM) | – | COC(=S)NC[C@H]1CN(c2ccc(N3CC(=O)N(C)C3)c(F)c2)C(=O)O1 [Example 110] |
| – | – | – | – | – | – | – | 223 | COC(=S)NC[C@H]1CN(c2ccc(N3CC(=S)N(C)C3)c(F)c2)C(=O)O1 [Example 126] |
| 0.25 (≈ 0.627 µM) | 0.25 (≈ 0.627 µM) | 0.5 (≈ 1.25 µM) | 0.5 (≈ 1.25 µM) | 0.25 (≈ 0.627 µM) | 0.5 (≈ 1.25 µM) | – | – | COC(=S)NC[C@H]1CN(c2ccc(N3CC(=S)N(C)C3)c(F)c2)C(=O)O1 [Example 125] |
| 2 (≈ 5.23 µM) | 4 (≈ 10.5 µM) | 4 (≈ 10.5 µM) | 4 (≈ 10.5 µM) | 4 (≈ 10.5 µM) | 8 (≈ 20.9 µM) | 32 (≈ 83.7 µM) | – | COC(=S)NC[C@H]1CN(c2ccc(N3CCN(C)C3=O)c(F)c2)C(=O)O1 [Example 113] |

The remaining lines, values behind:

| Compound | MIC [1] [µg/mL] | MIC [2] [µg/mL] | MIC [3] [µg/mL] | MIC [4] [µg/mL] | MIC [5] [µg/mL] | MIC [6] [µg/mL] | MIC [7] [µg/mL] | melting point [°C] |
| --- | --- | --- | --- | --- | --- | --- | --- | --- |
| CC(C)OC(=S)NC[C@H]1CN(c2ccc(N3CCOC3=O)cc2)C(=O)O1 [Example 107] | 2 (≈ 5.27 µM) | 4 (≈ 10.5 µM) | 4 (≈ 10.5 µM) | 8 (≈ 21.1 µM) | 4 (≈ 10.5 µM) | 4 (≈ 10.5 µM) | 32 (≈ 84.3 µM) | – |
| CC(=O)NC[C@H]1CN(c2ccc(N3CCOC3=O)c(F)c2)C(=O)O1 [Example 40] | 8 (≈ 23.7 µM) | 4 (≈ 11.9 µM) | 8 (≈ 23.7 µM) | 16 (≈ 47.4 µM) | 8 (≈ 23.7 µM) | 8 (≈ 23.7 µM) | 32 (≈ 94.9 µM) | – |
| COC(=S)NC[C@H]1CN(c2ccc(N3CCN(Cc4ccccc4)C3=O)c(F)c2)C(=O)O1 [Example 116] | – | – | – | – | – | – | – | 174 |
| CC(=S)NC[C@H]1CN(c2cc(F)c(N3CCOC3=O)c(F)c2)C(=O)O1 [Example 77] | – | – | – | – | – | – | – | 168 |
| CC(=S)NC[C@H]1CN(c2cc(F)c(N3CCOC3=O)c(F)c2)C(=O)O1 [Example 76] | 2 (≈ 5.39 µM) | 2 (≈ 5.39 µM) | 4 (≈ 10.8 µM) | 4 (≈ 10.8 µM) | 4 (≈ 10.8 µM) | 4 (≈ 10.8 µM) | > 32 | – |
| COC(=S)NC[C@H]1CN(c2ccc(N3CCN(Cc4ccccc4)C3=O)cc2)C(=O)O1 [Example 115] | – | – | – | – | – | – | – | 160 |
| CC(=O)NC[C@H]1CN(c2ccc(N3CCOC3=O)cc2)C(=O)O1 [Example 62] | 2 (≈ 6.26 µM) | 1 (≈ 3.13 µM) | 4 (≈ 12.5 µM) | – | 8 (≈ 25.1 µM) | 8 (≈ 25.1 µM) | 32 (≈ 100 µM) | – |
| COC(=S)NC[C@H]1CN(c2ccc(N3CC(=O)N(Cc4ccccc4)C3)c(F)c2)C(=O)O1 [Example 123] | – | – | – | – | – | – | – | 192 |
| CC(=S)NC[C@H]1CN(c2ccc(N3CCN(C)C3=O)c(F)c2)C(=O)O1 [Example 79] | 2 (≈ 5.46 µM) | 2 (≈ 5.46 µM) | 4 (≈ 10.9 µM) | 4 (≈ 10.9 µM) | 8 (≈ 21.8 µM) | 8 (≈ 21.8 µM) | 32 (≈ 87.3 µM) | – |
| COC(=S)NC[C@H]1CN(c2cc(F)c(N3CCOC3=O)c(F)c2)C(=O)O1 [Example 99] | 2 (≈ 5.16 µM) | 2 (≈ 5.16 µM) | 2 (≈ 5.16 µM) | 2 (≈ 5.16 µM) | 2 (≈ 5.16 µM) | 2 (≈ 5.16 µM) | > 32 | – |
| CCOC(=S)NC[C@H]1CN(c2ccc(N3CCOC3=O)c(F)c2)C(=O)O1 [Example 89] | 4 (≈ 10.4 µM) | 4 (≈ 10.4 µM) | 4 (≈ 10.4 µM) | 8 (≈ 20.9 µM) | 8 (≈ 20.9 µM) | 8 (≈ 20.9 µM) | > 32 | – |
| COC(=S)NC[C@H]1CN(c2ccc(N3CCOC3=S)c(F)c2)C(=O)O1 [Example 92] | – | – | – | – | – | – | – | 197 |
| COC(=S)NC[C@H]1CN(c2ccc(N3CCOC3=O)cc2)C(=O)O1 [Example 100] | 0.5 (≈ 1.42 µM) | 0.5 (≈ 1.42 µM) | 0.5 (≈ 1.42 µM) | 1 (≈ 2.85 µM) | 1 (≈ 2.85 µM) | 1 (≈ 2.85 µM) | 32 (≈ 91.1 µM) | – |
| COC(=S)NC[C@H]1CN(c2ccc(N3CCN(c4ccccc4)C3=O)c(F)c2)C(=O)O1 [Example 117] | – | – | – | – | – | – | – | 195 |
